# Reference: patent US6495663B1, “Method and composition for enhancing transport across biological membranes” (The Board of Trustees of the Leland Stanford Junior …, priority 1997, dated 2002)
# “Also recorded” adds a separate entry of the source. No end group written: not given here. *: point of attachment. FITC = O=C1OC2(c3ccc(O)cc3Oc3cc(O)ccc32)c2ccc(NC(=S)*)cc21; Ahx = NCCCCCC(=O)O
# B1: unmodified ovalbumin: ovalbumin (45 kDa) protein antigen, not conjugated (protein, UniProt P01012 2-386, looked up)
# Ovalbumin: GSIGAASMEFCFDVFKELKVHHANENIFYCPIAIMSALAMVYLGAKDSTRTQINKVVRFDKLPGFGDSIEAQCGTSVNVHSSLRDILNQITKPNDVYSFSLASRLYAEERYPILPEYLQCVKELYRGGLEPINFQTAADQARELINSWVESQTNGIIRNVLQPSSVDSQTAMVLVNAIVFKGLWEKAFKDEDTQAMPFRVTEQESKPVQMMYQIGLFRVASMASEKMKILELPFASGTMSMLVLLPDEVSGLEQLESIINFEKLTEWTSSNVMEERKIKVYLPRMKMEEKYNLTSVLMAMGITDVFSSSANLSGISSAESLKISQAVHAAHAEINEAGREVVGSAEAGVDAASVSEEFRADHPFLFCIKHIATNAVLFFGRCVSP
# Assays:
# [1] = cited from earlier work
# Jurkat cells [2] = experiment: Confocal cell microscopy of conjugate uptake; type: cell-based, human; conditions: 6.25 μM conjugate, 37° C., 10 minutes
# Experimental: Cells incubated with fluorescent polyarginine peptides were prepared as described above for binding assays and analyzed at the Cell Sciences Imaging Facility (Stanford University, Stanford, Calif.) using a scanning, single beam laser confocal microscope, with an excitation wavelength of 488 nm (argon-ion laser) and an emission band-width of 510-550 using a band-pass filter. Conjugates (6.25 μM) containing tat(49-57), R7, or r7 coupled to fluorescein were incubated with Jurkat cells for 37° C. for 10 minutes. FIGS. 2A-2F show results for emitted fluorescence (FIGS. 2A-2C) and transmitted light (2D—2F) for tat(49-57) (FIGS. 2A and […]), R7 (FIGS. 2B and 2E), and r7 (FIGS. 2C and 2F).
# Jurkat cells [3] = experiment: Kinetics of uptake (Michaelis-Menten, Lineweaver-Burk); type: cell-based, human; conditions: for Km / VMAX: fluorescent conjugates, Jurkat cells, 0.5, 1, 2 and 4 minutes at 4° C., Lineweaver-Burk
# Experimental: Peptides were incubated with cells for 0.5, 1, 2, and 4 minutes at 4° C. in triplicate, in 50 μL of PBS/FCS in 96-well plates. At the end of incubation, the reaction was quenched by diluting the samples in 5 mL of PBS/FCS, centrifuging and washing once with PBS/FCS, trypsin/EDTA, and finally again with PBS/FCS, and taking up the pellets in PBS/FCS containing propidium iodide for analysis on a FACScan. FACS data were fitted to the Line-weaver-Burk equation for Michaelis-Menten kinetics.
# E. coli strain HB101 = experiment: Transport into bacterial cells (gram-negative); type: cell-based; conditions: 30 minutes at 37° C., 3 to 50 μM conjugate
# Experimental: Gram-negative bacteria (E. coli strain HB101) and gram-positive bacteria (Strep. bovis) were grown in appropriate media in logarithmic phase. Cell cultures (4×10^8 per mL) were incubated for 30 minutes at 37° C. with varying concentrations of fluorescent conjugates containing linear polymers of L-arginine (R4 through R9), D-arginine (r4 through r9), or L-lysine (K9) at conjugate concentrations of 3 to 50 μM. The cells were washed and taken up in PBS-containing propidium iodide (to distinguish dead cells) and analyzed by FACS and fluorescent microscopy. Results are shown in FIGS. 5A-5C as discussed above.
# [4] = Biological half-life / proteolysis by serum enzymes in uptake assay; type: in vitro ADME; conditions: serum-containing assay
# cells = experiment: Length range studies: uptake of longer polyarginine conjugates (FACS, mean fluorescence of live cells); type: cell-based
# Experimental: To examine the effect of substantially longer polymers, a mixture of L-arginine polymers with an average molecular weight of 12,000 daltons (≈100 amino acids) was also tested (Example 5). However, to avoid precipitation problems, the level of serum in the assay had to be reduced for testing conjugates with the ≈12,000 MW polymer material. Cell uptake was analyzed by FACS as above, and the mean fluorescence of live cells was measured. Cytotoxicity of each conjugate was also measured.
# Suspension cells ([…]) were incubated for varying times, at 37° C., 23° C., or 4° C., with a range of concentrations of peptides or conjugates in PBS pH 7.2 containing 2% fetal calf serum (PBS/FCS) in 96 well plates. […] The pelleted cells were resuspended in PBS containing 2% FCS and 0.1% propidium iodide and analyzed on a FACScan (Becton Dickenson, Mountain View, Calif.). […]
# The following homopolymers of polyarginine were tested by the fluorescence assay in Example 2, with incubation at 37° C. for 15 minutes prior to cell pelleting: r9, R9, R15, R20, R25, and R30. […] The cells were analyzed by FACS, and the mean fluorescence of the live cells was measured. Cytotoxicity of each conjugate was also measured by calculating the percentage of cells that stained with propidium iodide, which is characteristic of cell death. […]
# Jurkat cells [5] = experiment: Fluorescence assay of cellular uptake of peptide-fluorescein conjugates (FACS); type: cell-based, human; conditions: FIGS. 1A-1C
# [6] = test system: gamma-IFN secretion by murine T cell line (clone 11.3); experiment: Inhibition of gamma-IFN production by conjugates; type: cell-based
# Experimental: 3. Gamma-IFN Assay. The amount of gamma interferon secreted by a murine T cell line (clone 11.3) was measured by incubating 10^5 T cells with varying amounts of antigen (peptide consisting of residues 110-121 of sperm whale myoglobin) and histocompatible spleen cells from DBA/2 mice (H-2d, 5×10^5), which act as antigen-presenting cells (APCs), in 96 well plates. After incubation for 24 hours at 37° C., 100 μL of the supernatants were transferred to microtiter plates coated with commercially available anti-gamma-IFN monoclonal antibodies (Mab) (Pharmingen, San Diego, Calif.). After incubation for an hour at room temperature, the plates were washed with PBS containing 1% fetal calf serum and 0.1% Tween®20, after which a second, biotinylated gamma-IFN Mab was added. After a second hour of incubation, the plates were washed as before, and europium (Eu)-streptavidin (Delphia-Pharmacia) was added. Again, after an hour of incubation, an acidic buffer was added to release Eu, which was measured by time-resolved fluorometry on a Delphia plate reader.
# The ability of PNA-polyarginine conjugates to inhibit secretion of gamma-IFN was assayed by adding various concentrations of the above gamma-IFN conjugates with suboptimal doses of peptide antigen (0.5 μM), to a mixture of clone 11.3 T cells and histocompatible spleen cells.
# After 24 hours, aliquots of the cultured supernatants were taken, and the amount of gamma-IFN was measured using the fluorescent binding assay described in section 3 above.
# RAF-1 kinase = target: T1, RAF-1 kinase (Homo sapiens, UniProt P04049); experiment: RAF-kinase activity in anti-RAF-1 precipitates of T cells; type: cell-based; conditions: anti-RAF-1 precipitates of exposed T cells
# T1 construct: Anti-RAF-1 precipitates of T cells; endogenous in cells; host or cells: T cells
# Description: In a second study, the V7 peptide portion of the V7-poly-arginine conjugate was phosphorylated in vitro using protein kinase C.
# [7] = target: T2, RAF-1 in V7 immunocomplex (Homo sapiens, UniProt P04049); experiment: Anti-V7 immunoprecipitation from peptide-treated T-cells; type: cell-based
# T2 construct: T-cells which had been isolated by standard methods; endogenous in cells; host or cells: T-cells isolated by standard methods
# Experimental: The conjugate was added (final concentration ≈10 μM) to T-cells which had been isolated by standard methods, and was incubated at 37° C. for several hours to overnight. Cells were lysed using detergent (1% Triton X-100). DNA was removed, and the soluble (protein-containing) fraction was subjected to immunoprecipitation with an anti-V7 murine monoclonal antibody in combination with goat anti-mouse IgG. RAF-1 is a kinase that associates with, and is inactivated by association with, V7.
# [8] = target: T3, complex consisting of RAF-1 and p21 Ras (Homo sapiens, UniProt P04049); experiment: Disruption of RAF-1/p21 Ras complex in peptide-treated T-cells; type: cell-based; conditions: same peptide treatment
# T3 construct: T-cells which had been isolated by standard methods; endogenous in cells; host or cells: T-cells isolated by standard methods
# albumin-specific CTLs = experiment: Dendritic cells exposed to conjugate and injected into mice: CTL response in blood; type: in vivo; conditions: dendritic cells exposed to antigen, then injected into mice
# Experimental: In another experiment, histocompatible dendritic cells (a specific type of APC) were exposed to albumin-R7 conjugates and were then injected into mice. […] Control mice were given dendritic cells that had been exposed to unmodified albumin.
# cytotoxic T-lymphocytes = experiment: Transport of large protein antigen into APCs: stimulation of CTLs; type: cell-based; conditions: 10 μM on B-cells (APCs)
# Experimental: The molar ratio of peptide conjugated to ovalbumin was quantified by amino acid analysis. The conjugate product was designated OV-R7. The conjugate was added (final concentration 10 μM) to B-cells, also referred to as antigen-presenting cells (APCs), which were isolated according to standard methods. The APCs were incubated with OV-R7, and then were added to a preparation of cytotoxic T-lymphocytes isolated by standard methods.
molecule,measurement,setting,value
CC(=O)O[C@@]12CO[C@@H]1C[C@H](O)[C@@]1(C)C(=O)[C@H](O)C3=C(C)[C@@H](OC(=O)[C@H](O)[C@@H](NC(=O)OC(C)(C)C)c4ccccc4)C[C@@](O)([C@@H](OC(=O)c4ccccc4)[C@H]21)C3(C)C [taxotere],water solubility,[1],6 to 7 µg/mL
"Arg-Lys-Lys-Arg-Arg-Gln-Arg-Arg-Arg (RKKRRQRRR; also: fluorescein conjugate, place not given here) [tat 49-57, polypeptide comprising HIV tat residues 49-57, fluorescein conjugate, reference compound]",fluorescence of cytosol (confocal micrographs),Jurkat cells [2],only weak staining
same,Km,Jurkat cells [3],722 µM
same,VMAX,Jurkat cells [3],0.38 µM/s
H3N-rrrrrrrrr-COO^-,uptake levels by E. coli HB 101 cells,E. coli strain HB101,much higher uptake levels
same,proteolytic degradation,[4],did not show evidence of proteolytic degradation
same,rate of entering cells,cells; FIG. 3 data,higher rates than polymers containing 15 or more contiguous arginines
same,uptake versus longer polymers,"cells; higher concentrations (>3 μM), 37° C., 15 minutes",significantly better than for the longer polymers
same,fluorescence of cytosol (confocal micrographs),Jurkat cells [2],brightly fluorescent
same,Km,Jurkat cells [3],7.21 µM
same,VMAX,Jurkat cells [3],0.39 µM/s
same,Km,Jurkat cells [3]; listed as nonamer of D-arginine,7 µM
same,apparent affinity (Km) relative to tat peptide,Jurkat cells [3]; greater apparent affinity than tat(49-57),approximately 100 fold
"K9: nonamer of L-Lys residues, fluorescein conjugate ({FITC-Ahx}-KKKKKKKKK; also: fluorescein conjugate, place not given here)",cellular uptake (transport of fluorescein into cells),Jurkat cells [5],very little uptake
same,cellular uptake (transport of fluorescein into cells),Jurkat cells [5]; listed as poly-Lys nonamer,ineffective as a transporter
"NH2-rrrrrrr-AACGCTACAC-COOH (PNA, D-arginine heptamer conjugate, chemistry not fully specified) [sense PNA-r7]",inhibition of gamma-IFN secretion,"[6]; 24 hours, peptide antigen 0.5 μM, equivalent molar amounts",no inhibition
"NH2-rrrrrrr-GTGTAGCGTT-COOH (all peptide nucleic acid (PNA); D-arginine heptamer attached at the N-terminus, further chemistry not fully specified) [antisense PNA-r7 conjugate]",reduction in IFN secretion,"[6]; 24 hours, peptide antigen 0.5 μM",over 70%
same,conjugate level effective to block γ-IFN secretion,[6]; FIG. 7,above 10 μM
V7 peptide: V7 cytoplasmic tail sequence KLSTLRSNT with 7 arginine residues attached to its C-terminus (KLSTLRSNTRRRRRRR),inhibition of RAF-kinase activity,RAF-1 kinase,not
same,binding to RAF-1,[7],can bind to RAF-1
same,RAF-1 co-precipitation with V7,"[7]; ≈10 μM on T-cells, 37° C., several hours to overnight",RAF-1 protein was eliminated from the V7 immuno-complex; also recorded: RAF-1 protein was eliminated from the V7 immunocomplex
same,disruption of complex of RAF-1 and p21 Ras,[8],did not disrupt; also recorded: unable to disrupt
B1,albumin-specific CTL response in blood of mice,albumin-specific CTLs,did not exhibit the albumin-specific CTL response
same,stimulation of CTLs by APCs incubated with antigen,cytotoxic T-lymphocytes,failed to stimulate the CTLs
